Reference: US10718770B2, “Methods for screening compounds for treating or preventing a viral infection or a virus-related condition” (ABIVAX, priority 2015, dated 2020)

How the values were obtained:
HIV-1 strain YU2 = assay: HIV-1 p24 production in infected monocyte derived-macrophages; type: cell-based; conditions: Human immunodeficiency virus 1, Primary macrophage, read-out: inhibition levels of virus replication (p24)
Source text: FIG. 5. Potency of indole derivatives to inhibit HIV-1 production in PBMC- and macrophages-infected cells. A) HIV-1 strain Ada-MR5 was used to infect triplicate of activated PBMCs from different donors (stimulated for two days with PHA and IL2) in the absence or presence of increasing concentrations of Compound 1. Supernatant was harvested 6 days post-infection (pi) and viral capsid protein p24 antigen was quantitated using standard ELISA protocol. Each point represents 6 donors. B) HIV-1 strain YU2 was used to infect triplicate of monocyte derived-macrophages from different donors in the absence or presence of increasing concentrations of Compound 1. Supernatant was harvested 8 days pi and viral capsid protein p24 antigen was quantitated using standard ELISA protocol. Each point represents 8 donors.
To generate monocyte derived macrophages (MDMs), monocytes were isolated using CD14 microbeads (catalog no. 130-050-201; Miltenyi) and cultured in X-VIVO10 medium (Lonza) supplemented with GM-CSF 1000 U/ml and M-CSF 100 ng/ml for 6 days. Monocytes were seeded at a cell count of 50′000 cells per well in a 96 well plate. After 6 days medium was replaced with X-VIVO10 w/o Cytokines. […]
Cells were treated with 0.01 μM up to 30 μM and p24 antigen levels were monitored in culture supernatant over a 12 day period. […]

[1] = Lymphocyte populations in engrafted humanized mice treated for 30 days; type: in vivo; conditions: one month, 20 mg/kg or 40 mg/kg, compared to controls without treatment
Protocol: FIG. 7. Efficacy of Compound 1 to inhibit viral replication in humanized mice. A) Reconstituted SCID mice were infected with JRCSF HIV-1 strain by intraperitoneal injection. Control group received by gavage labrafil and 5% DMSO (n=15) and treated group 20 mg/kg b.i.d of Compound 1 in labrafil and 5% DMSO (n=14) for 15 days. Two independent experiments were performed with 5 and 10 reconstituted mice for each group. Viral load was assessed by measuring viral RNA using the Amplicor HIV-1 Monitor from Roche. B) FACS analysis was performed on peritoneal wash at day 15 post-treatment to assess the CD8/CD4 ratio. C) Engrafted NSG humanized mice were treated by oral gavage with Compound 1 at either 20 mg or 40 mg/kg once a day for 30 days and indicated lymphocyte populations (CD45+; CD4+ and CD8+) were monitored by FACS analysis. […] Viral load was assessed by measuring viral RNA using the Amplicor HIV-1 Monitor from Roche. […]
Briefly, newborn (<5 days old) NSG mice received sub-lethal (1 Gy) total body irradiation with a Cs source, and then received […] transduced or untransduced CD34+ human HSCs using a 50 μl Hamilton syringe via the intrahepatic (i.h.) route. […] Mice were monitored three times a week for symptoms or signs of adverse events, according to a standard score sheet. […]

[2] = tested on: HIV RNA splicing in infected PBMCs; assay: Sequence capture and 454 pyrosequencing of HIV RNA in infected PBMCs; type: cell-based, HIV-1
Protocol: To test whether Compound 1 influences the splicing of HIV RNA in infected cells, an array-based sequence capture was performed using a customized library probes targeting HIV sequences to get rid of cellular RNA. The probes were used to capture cDNAs prepared from infected treated and untreated PBMCs. After double capture, libraries were prepared and sequenced using 454 pyrosequencing (according to GS junior method manual). The average size of the reads around 400 bp allowed unambiguous assembly of viral genome from untreated sample (after 3 and 6 days of infection) using reads that were not mapped to human genome (hg19). All sequencing data were analysed using gsnap, as detailed in Wu et al. (Fast and SNP-tolerant detection of complex variants and splicing in short reads. Bioinformatics 26, 873-881 (2010)).

FC(F)(F)Oc1ccc(Nc2ccc3cccc(Cl)c3n2)cc1 [Compound 1, 8-chloro-N-(4-(trifluoromethoxy)phenyl)quinolin-2-amine]
inhibition at 0.1 µM (HIV-1 strain YU2): ≤ 90% | engraftment values of CD45+ cells and ratio of CD8+/CD4+ [1]: neither alters engraftment values of CD45+ cells nor the ratio of CD8+/CD4+ | coverage of viral genome ([2]; 3 days post infection): 4149 reads | fraction of reads corresponding to splice junctions ([2]; 3 days post-infection): 17.4% | fraction of reads corresponding to splice junctions ([2]; 6 days post-infection): 13.3% | number of reads ([2]; 6 days post-infection): 20 585
